The source of these data is the METLIN SMRT retention time set (Domingo-Almenara et al. 2019).

SMILES strings stand for the structures.

This series in a line: gradient 5% acetonitrile 3 min, to 50% in 2 min, to 85% in 15 min, held 3 min, 100 µL/min. Particulars: column: Zorbax Extend-C18 2.1 x 50 mm; eluents: water / acetonitrile, 0.1% formic acid. A digest of the protocol: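 Each retention time is based on an adduct peak selected computationally and verified by manual inspection. Measurements used HPLC–quadrupole time-of-flight mass spectrometry in positive and negative ionization mode on mixtures of ~100 pure standards. Chromatography ran on a Zorbax Extend-C18 column (2.1 × 50 mm, 1.8 μm) at 100 μL/min with water and acetonitrile, each containing 0.1% formic acid, and dead and dwell volumes of 40 μL and 900 μL.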
As for `O=C(NCCc1ccccc1)C1CCCN(C(=O)Cc2cccc3ccccc23)C1` (stereo unspecified), the RP-LC retention time stood at 906 s.
As for `CCC(CO)NC(=O)C(=O)Nc1ccccc1SC` (stereo unspecified), the RP-LC retention time is 710 s.
Compound `O=C(Cn1cnc2ccccc2c1=O)N1CCCC1` yielded an RP-LC retention time of 612 s.
The compound `O=C(CCc1csc2nc(-c3ccc(Cl)cc3)cn12)Nc1nccs1` registered an RP-LC retention time of 774 s.
Consider `c1ccc(N2CCN(Cc3nc(-c4ccc(N5CCCCCC5)nc4)no3)CC2)nc1`, for which the RP-LC retention time stood at 593 s.
Compound `CC1CCN(S(=O)(=O)c2nn(C)cc2C(=O)NCCc2cccs2)CC1` registered an RP-LC retention time of 952 s.
As for `CCN(CC)CCOC(=O)C(O)(c1ccccc1)c1ccccc1`, the RP-LC retention time turned out to be 714 s.
The compound `CCC(=O)NC(c1ccc(N(C)C)cc1)c1ccc2cccnc2c1O` (stereo unspecified) had an RP-LC retention time of 620 s.
`O=C(c1ccoc1)N1CCCC1Cc1noc(-c2cnccn2)n1` (stereo unspecified): the RP-LC retention time worked out at 686 s.
In the case of `CCN1CCN(C(=O)Cc2c(C)nc3nc(-c4ccccc4)nn3c2C)CC1`, the RP-LC retention time came to 589 s.
Compound `CCc1cc(=O)n(CC(=O)Nc2cccc(Cl)c2)c(N2CCOCC2)n1` had an RP-LC retention time of 788 s.
The same measure for `O=C(NCC1CC1)[C@@H]1OCCN(C2CC2)[C@H]1c1ccccc1`: 612 s.
The same measure for `O=C1COc2ccccc2N1Cc1nc(-c2ccccc2)no1`: 971 s.
Turning to `COC(=O)c1sc(NC(=O)COc2ccc(Cl)cc2)nc1C`, the RP-LC retention time came to 963 s.
Compound `O=C(CCn1cnc2cc(-c3noc(/C=C/c4ccccc4)n3)ccc21)N1CCCC1` showed an RP-LC retention time of 792 s.
The result for `O=C(NCc1ccccc1C(F)(F)F)c1ccc2ncnc(N3CCCC3)c2c1` reads 692 s; that for `CC(C)(C)NC(=O)NC1CCN(c2ccccc2)C1=O` (stereo unspecified), 722 s; that for `COCCN1C(=O)CCc2cc(NC(=O)Cc3ccccc3C)ccc21`, 766 s.
`O=C(NCc1ccco1)c1cnn2c(-c3ccc(Cl)cc3)ccnc12` came in with an RP-LC retention time of 945 s.
Turning to `Cc1ccc(NC(=O)N2CCC3(CC2)NC(=O)c2cc(Cl)ccc2N3C)cc1C`, the RP-LC retention time came out at 904 s.
Compound `COc1cccc(Cn2nc3n(C)c(=O)c4ccc(C(=O)NC5CCCC5)cc4n3c2=O)c1` gave an RP-LC retention time of 851 s.
In turn, `COc1ccc2nc(NC3=NCN(CCc4cccs4)CN3)nc(C)c2c1` came in with an RP-LC retention time of 743 s.
The same measure for `COc1cc(SC)ccc1C(=O)NCCc1c[nH]c2ccc(C)cc12`: 953 s; for `CC(C)n1cnc(S(=O)(=O)N2CCCC(C(=O)Nc3ccccc3)C2)c1` (stereo unspecified): 768 s.
The result for `CCOc1cccc(-c2noc(Cn3ccnc3)n2)c1` reads 635 s.
In turn, `O=C(Cn1nc2c(SC3CCCCC3)nccn2c1=O)Nc1ccc(Br)cc1` gave an RP-LC retention time of 1120 s.
Compound `Cc1ccc2c(c1)N(S(C)(=O)=O)CCC(C(=O)Nc1ccc(Br)cc1)O2` (stereo unspecified) returned an RP-LC retention time of 1020 s.
The same measure for `O=C(CN1C(=O)CC(c2ccccc2)S(=O)(=O)c2ccccc21)NCCc1ccccc1` (stereo unspecified): 855 s; for `CC(Oc1ccccc1Cl)C(=O)Nc1ccnn1Cc1cccs1` (stereo unspecified): 913 s.
The result for `COc1cc(-c2nc(C3CC(=O)N(c4ccc(F)cc4)C3)no2)cc(OC)c1OC` (stereo unspecified) reads 901 s; that for `CCCn1c(C)cnc1C1CN(S(=O)(=O)c2ccc(Cl)c(Cl)c2)C1`, 724 s; that for `CN1c2cc(F)ccc2C(=O)NC12CCN(C(=O)c1cccc(F)c1)CC2`, 769 s.
The compound `Cc1ccc(C)c(NC(=O)Cn2cccc2-c2nnc(-c3ccccc3)o2)c1` came in with an RP-LC retention time of 1020 s.
The compound `Cc1ccn2cc(-c3ccc(NC(=O)c4ccc(Br)cc4)cc3)nc2n1` yielded an RP-LC retention time of 698 s.
The same measure for `CC(C)Cc1nc(-c2ccccc2)oc1CC(=O)Nc1ccc(F)cc1Cl`: 1180 s.
The compound `O=C(NC1CC1)C1(F)CCN(S(=O)(=O)c2ccccc2)CC1` showed an RP-LC retention time of 673 s.
In the case of `O=C(NCCC1=CCCCC1)C1CCN(c2cnc(N3CCCCC3)nc2)CC1`, the RP-LC retention time was found to be 872 s.
`COc1ccc(C(CC(=O)NCCN2CCOCC2)N2Cc3ccccc3C2=O)cc1OC` (stereo unspecified) returned an RP-LC retention time of 603 s.
The same measure for `COc1cc([C@@H]2c3cc4c(cc3[C@H](O)[C@@H](CO)[C@@H]2C(=O)NCc2ccc(OC(C)C)cc2)OCO4)cc(OC)c1OC`: 770 s; for `CC1=NS(=O)(=O)N(C)C=C1C(=O)OCc1nc(-c2ccccc2)no1`: 944 s.
In turn, `Cc1noc(-c2nc(-c3ccccc3F)no2)n1` displayed an RP-LC retention time of 990 s.
As for `COc1ccc(-c2nc(-c3cn(-c4cccc(Cl)c4)nn3)no2)c(OC)c1`, the RP-LC retention time is 1070 s.
For the compound `O=C(Nc1nccs1)C1CCN(C(=O)C2CC(=O)N(c3ccc(F)cc3)C2)CC1` (stereo unspecified), the RP-LC retention time worked out at 672 s.
For the compound `O=C(C(=O)N1CCOCC1)c1c(-c2ccccc2)cc2ccccn12`, the RP-LC retention time came to 798 s.
As for `CCOc1cccc2cc(C(=O)N3CCOCC3)oc12`, the RP-LC retention time was determined as 718 s.
The result for `CCOC(=O)COc1ccc2c(c1)C(=O)CC1(CCN(C(C)=O)CC1)O2` reads 718 s; that for `Cc1c(C(=O)Nc2cc(=O)n(C)c(=O)n2C)cccc1[N+](=O)[O-]`, 652 s; that for `Cc1ccc(Nc2cc(C)nc3ccnn23)cc1`, 620 s.
Consider `CC(=O)Nc1ccc(Br)cc1C(=O)c1ccccc1`, for which the RP-LC retention time is 840 s.
The result for `O=C(CC1CCN(C(=O)c2cc3ccccc3[nH]2)CC1)NCCN1CCCC1` reads 559 s; that for `Cc1cc(CN2CCC(CNC(=O)Cc3ccccc3Cl)CC2)c(C)o1`, 583 s; that for `O=C1CN(Cc2ccco2)C2CS(=O)(=O)CC2N1c1ccc(Cl)cc1` (stereo unspecified), 714 s.
Turning to `COc1ccc(S(=O)(=O)N2CCOC2CNC(=O)C(=O)NCc2ccccn2)cc1C` (stereo unspecified), the RP-LC retention time amounted to 603 s.
Compound `OCC1CN(c2ccncn2)CC12CCN(Cc1c[nH]c3ccccc13)CC2` (stereo unspecified) returned an RP-LC retention time of 579 s.
The same measure for `COCCn1c(C2CCN(C(=O)c3cccc(Cl)c3)C2)nc2ccncc21` (stereo unspecified): 561 s; for `Cc1ccc2c(C(=O)NCc3ccc(C)o3)cc(NC(=O)C3CCC3)cc2n1`: 618 s; for `COCCNC(=O)C1CCN(C(=O)c2ncn3c2COC(c2ccc(F)cc2)C3)CC1` (stereo unspecified): 645 s.
In the case of `COCCN1CCn2cc(S(=O)(=O)Nc3ccc(C)cc3C)cc2C1=O`, the RP-LC retention time was 730 s.
Turning to `CCCOc1nccnc1N1CCC(NC(=O)c2ccoc2)C1` (stereo unspecified), the RP-LC retention time came out at 585 s.
Compound `COc1ccc(-c2ncc3c(n2)CCN(S(=O)(=O)c2ccc(C)cc2C)C3)cc1` gave an RP-LC retention time of 1140 s.
On to `O=C(NCCN1CCCCCC1)C1CCN(c2nc3cccnc3s2)CC1`, for which the RP-LC retention time was 598 s.
